Assay results taken from patent US6894072B2, “Compounds as NS3-serine protease inhibitors of hepatitis C virus” (Schering Corporation, priority 2002, dated 2005).

Target: T1, HCV serine protease (Hepatitis C virus genotype 1a, UniProt P27958)
T1 construct: Spectrophotometric assay for the HCV serine protease
Test: Spectrophotometric assay for HCV protease inhibitory activity
Type: biochemical
Conditions: procedure of WO 02/08244
Procedure: Assay for HCV Protease Inhibitory Activity: Spectrophotometric Assay: Spectrophotometric assay for the HCV serine protease was performed on the inventive compounds by following the procedure described in PCT Publication No. WO 02/08244 published Jan. 31, 2002. The activity of the compounds in Table 1 is shown in the same Table.

T1 sequence (P27958 1027-1657): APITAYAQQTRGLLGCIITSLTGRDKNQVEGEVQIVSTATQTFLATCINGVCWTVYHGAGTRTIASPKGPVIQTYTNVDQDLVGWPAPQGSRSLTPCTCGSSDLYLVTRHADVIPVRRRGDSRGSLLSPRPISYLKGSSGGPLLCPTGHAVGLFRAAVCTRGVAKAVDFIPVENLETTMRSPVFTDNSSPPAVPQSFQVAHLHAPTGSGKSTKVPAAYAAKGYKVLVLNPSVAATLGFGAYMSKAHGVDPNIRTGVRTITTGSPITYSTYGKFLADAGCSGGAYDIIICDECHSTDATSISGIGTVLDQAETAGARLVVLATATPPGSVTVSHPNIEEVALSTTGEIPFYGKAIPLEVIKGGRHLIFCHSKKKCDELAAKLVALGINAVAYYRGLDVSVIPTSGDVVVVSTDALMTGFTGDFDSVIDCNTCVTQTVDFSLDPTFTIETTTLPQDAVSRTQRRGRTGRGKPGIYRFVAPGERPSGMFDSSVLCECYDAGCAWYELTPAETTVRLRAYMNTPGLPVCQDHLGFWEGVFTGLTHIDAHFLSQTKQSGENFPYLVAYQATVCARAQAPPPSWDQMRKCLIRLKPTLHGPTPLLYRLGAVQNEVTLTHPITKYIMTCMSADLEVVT
T1 sequence (P27958 1658-1711): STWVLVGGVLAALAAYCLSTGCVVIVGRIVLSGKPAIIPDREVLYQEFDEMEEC

Activity (binding activity)	Structure (SMILES)
A (Binding activity A: <5 μM)	CC(C)(C)OC(=O)N[C@H](C(=O)N1CC2C([C@H]1C(=O)NC(CC1CCC1)C(=O)C(=O)N1CCC1)C2(C)C)C1CCCCC1 (stereo partly shown) [Entry 1]
A (Binding activity A: <5 μM)	COC(=O)[C@@H]1CCN1C(=O)C(=O)C(CC1CCC1)NC(=O)[C@@H]1C2C(CN1C(=O)[C@@H](NC(=O)OC(C)(C)C)C1CCCCC1)C2(C)C (stereo partly shown) [Entry 2]
A (Binding activity A: <5 μM)	CC(C)(C)OC(=O)N[C@H](C(=O)N1CC2C([C@H]1C(=O)NC(CC1CCC1)C(=O)C(=O)N1CC[C@H]1C(=O)O)C2(C)C)C1CCCCC1 (stereo partly shown) [Entry 3]
A (Binding activity A: <5 μM)	CC(C)(C)OC(=O)N[C@H](C(=O)N1CC2C([C@H]1C(=O)NC(CC1CCC1)C(=O)C(=O)N1CC[C@H]1C(=O)OCc1ccccc1)C2(C)C)C1CCCCC1 (stereo partly shown) [Entry 4]
